Source: ChEMBL document CHEMBL5370670, “Anti-MRSA Dimeric and Brominated Phenyltetracenoids Produced by Streptomyces morookaense SC1169” (J Nat Prod, 2023)
Converted amounts (≈) assume the structure as drawn. Counter-ions that a name gives are not always drawn.

Assays:
Staphylococcus aureus [1] = assay: Antibacterial activity against methicillin-resistant Staphylococcus aureus incubated for 6 to 8 hrs by microplate Alamar Blue assay; format: functional; conditions: time 6-8 hrs
Staphylococcus aureus [2] = assay: Antibacterial activity against Staphylococcus aureus ATCC 6538 incubated for 6 to 8 hrs by microplate Alamar Blue assay; format: functional; conditions: time 6-8 hrs
Enterococcus faecium [3] = assay: Antibacterial activity against Enterococcus faecium incubated for 6 to 8 hrs by microplate Alamar Blue assay; format: functional; conditions: time 6-8 hrs
Enterococcus faecium [4] = assay: Antibacterial activity against vancomycin-resistant Enterococcus faecium incubated for 6 to 8 hrs by microplate Alamar Blue assay; format: functional; conditions: time 6-8 hrs
HepG2 = assay: Cytotoxicity against human HepG2 cells assessed as cell growth inhibition incubated for 48 hrs by MTT assay; format: functional, cell-based; conditions: HepG2, 48 h
HeLa = assay: Cytotoxicity against human HeLa cells assessed as cell growth inhibition incubated for 48 hrs by MTT assay; format: functional, cell-based
[5] = Cytotoxicity against African green monkey Vero cells assessed as cell growth inhibition incubated for 48 hrs by MTT assay; format: toxicity, cell-based; conditions: African green monkey (Chlorocebus sabaeus)
A549 = assay: Cytotoxicity against human A549 cells assessed as cell growth inhibition incubated for 48 hrs by MTT assay; format: functional, cell-based; conditions: A549, 48 h
MCF7 = assay: Cytotoxicity against human MCF7 cells assessed as cell growth inhibition incubated for 48 hrs by MTT assay; format: functional, cell-based; conditions: MCF7, 48 h
[6] = Selectivity index, ratio of IC50 for cytotoxicity against African green monkey Vero cells to IC50 for cytotoxicity against human A549 cells; format: toxicity, cell-based; conditions: Vero cells and A549 cells, read-out: Ratio IC50

Compound | MIC (Staphylococcus aureus [1]) [µg/mL] | MIC (Staphylococcus aureus [2]) [µg/mL] | MIC (Enterococcus faecium [3]) [µg/mL] | MIC (Enterococcus faecium [4]) [µg/mL] | IC50 (HepG2) [µM] | IC50 (HeLa) [µM] | IC50 at 48 h [5] [µM] | IC50 (A549) [µM] | IC50 (MCF7) [µM] | selectivity ratio [6]
COc1cc(C)c(-c2cc(OC)cc3cc4c(c(O)c23)C(=O)c2c(O)cc(O)cc2C4(C)C)c(O)c1 | 1.3 (≈ 2.67 µM) | 1.3 (≈ 2.67 µM) | 1.3 (≈ 2.67 µM) | 1.3 (≈ 2.67 µM) |  |  |  |  |  | 
COc1cc(C)c(-c2cc(O)c(Cl)c3cc4c(c(O)c23)C(=O)c2c(cc(OC)c(Cl)c2O)C4(C)C)c(O)c1 | 2.5 (≈ 4.5 µM) | 2.5 (≈ 4.5 µM) | 2.5 (≈ 4.5 µM) | 2.5 (≈ 4.5 µM) |  |  |  |  |  | 
COc1cc(C)c(-c2cc(O)cc3cc4c(c(O)c23)C(=O)c2c(cc(OC)c(Cl)c2O)C4(C)C)c(O)c1 | 2.5 (≈ 4.8 µM) | 2.5 (≈ 4.8 µM) | 2.5 (≈ 4.8 µM) | 2.5 (≈ 4.8 µM) |  |  |  |  |  | 
COc1cc(C)c(-c2cc(OC)cc3cc4c(c(O)c23)C(=O)c2c(O)cc(OC)cc2C4(C)C)c(O)c1 | > 10 | > 10 | > 10 |  | 2.7 | 6.7 | 7.6 | 4.6 | 6.2 | 
COc1cc(C)c(-c2cc(O)cc3cc4c(c(O)c23)C(=O)c2c(O)cc(OC)cc2C4(C)C)c(O)c1 | 2.5 (≈ 5.14 µM) | 2.5 (≈ 5.14 µM) | 1.3 (≈ 2.67 µM) | 2.5 (≈ 5.14 µM) | 7 | 6.5 | 6.7 | 5.3 | 16.5 | 
COc1cc(C)c(-c2cc(O)cc3cc4c(c(O)c23)C(=O)c2c(cc(OC)c(Br)c2O)C4(C)C)c(O)c1 | 0.6 (≈ 1.06 µM) | 0.6 (≈ 1.06 µM) | 1.3 (≈ 2.3 µM) | 1.3 (≈ 2.3 µM) | 3.5 | 4.1 | 2.8 | 2.5 | 3.1 | 
COc1cc(C)c(-c2cc(O)cc3cc4c(c(O)c23)C(=O)c2c(cc(OC)c(Br)c2OC)C4(C)C)c(O)c1 | 5 (≈ 8.63 µM) | 5 (≈ 8.63 µM) | 5 (≈ 8.63 µM) | 5 (≈ 8.63 µM) | 5.7 | 5.1 | 5.8 | 4.7 | 8.6 | 
COc1cc(-c2c(O)cc(OC)c(Cc3c(OC)cc(C)c(-c4cc(OC)cc5cc6c(c(O)c45)C(=O)c4c(O)cc(O)cc4C6(C)C)c3O)c2C)c2c(O)c3c(cc2c1)C(C)(C)c1cc(O)cc(O)c1C3=O | > 10 | > 10 | > 10 |  | > 50 | > 50 | > 50 | > 50 | > 50 | 
COc1cc(C)c(-c2cc(OC)cc3cc4c(c(O)c23)C(=O)c2c(OC)cc(OC)cc2C4(C)C)c(O)c1 | > 10 | > 10 | > 10 |  | 5.8 | 7.7 | 9 | 6 | 9.2 | 
COC1=CC(=O)C(c2cc(OC)cc3cc4c(c(O)c23)C(=O)c2c(O)cc(O)cc2C4(C)C)=C(C)C1=O | > 10 | > 10 | > 10 |  | 12.4 | 14.6 | 15.1 | 8.9 | 9.6 | 
COc1cc(-c2c(O)cc(OC)c(Cc3c(OC)cc(O)c(-c4cc(OC)cc5cc6c(c(O)c45)C(=O)c4c(O)cc(O)cc4C6(C)C)c3C)c2C)c2c(O)c3c(cc2c1)C(C)(C)c1cc(O)cc(O)c1C3=O | 2.5 (≈ 2.54 µM) | 2.5 (≈ 2.54 µM) | > 10 |  | 16.7 | 15.8 | 17.6 | 5.7 | 17.2 | 3
COc1cc(C)c(-c2cc(OC)cc3cc4c(c(O)c23)C(=O)c2c(cc(O)c(Br)c2O)C4(C)C)c(O)c1 | 1.3 (≈ 2.3 µM) | 1.3 (≈ 2.3 µM) | 1.3 (≈ 2.3 µM) | 2.5 (≈ 4.42 µM) | 5.2 | 3.6 | 9 | 3.3 | 8.9 | 
COc1cc(C)c(-c2cc(O)c(Br)c3cc4c(c(O)c23)C(=O)c2c(cc(OC)c(Br)c2O)C4(C)C)c(O)c1 | 1.3 (≈ 2.02 µM) | 1.3 (≈ 2.02 µM) | 2.5 (≈ 3.88 µM) | 2.5 (≈ 3.88 µM) | 5.9 | 1.7 | 15.1 | 2.8 | 4.6 | 
COc1cc(C)c(C(=O)c2c(CC(C)=O)cc3c(c2O)C(=O)c2c(cc(OC)c(Br)c2OC)C3(C)C)c(OC)c1 | > 10 | > 10 | > 10 |  | 13.6 | 12.6 | > 50 | 10.2 | 12.3 | 
COc1cc(-c2c(O)cc(OC)c(OC)c2C)c2c(O)c3c(cc2c1)C(C)(C)c1cc(O)cc(O)c1C3=O | 5 (≈ 9.68 µM) | 5 (≈ 9.68 µM) | 5 (≈ 9.68 µM) | 5 (≈ 9.68 µM) | 4.8 | 11.1 | 4.5 | 6.3 | 12.3 | 
COc1cc(C)c(-c2cc(OC)cc3cc4c(c(O)c23)C(=O)c2c(cc(OC)c(Br)c2O)C4(C)C)c(O)c1 | > 10 | > 10 | > 10 |  | 4.7 | 1.7 | 7.3 | 3.3 | 7.9 | 
COc1cc(C)c(-c2cc(OC)c(Br)c3cc4c(c(O)c23)C(=O)c2c(O)cc(O)cc2C4(C)C)c(O)c1 | 1.3 (≈ 2.3 µM) | 1.3 (≈ 2.3 µM) | 1.3 (≈ 2.3 µM) | 1.3 (≈ 2.3 µM) | 4.5 | 5.8 | 5.7 | 3.1 | 5.3 | 
COc1cccc2c1C(=O)c1c(O)c3c(c(O)c1C2=O)C[C@@](O)(C(=O)CO)C[C@@H]3O[C@H]1C[C@H](N)[C@H](O)[C@H](C)O1 [DOXORUBICIN HYDROCHLORIDE] |  |  |  |  | 0.8 |  |  | 0.7 |  | 
NC[C@H]1O[C@H](O[C@H]2[C@H](O)[C@@H](O[C@H]3O[C@H](CO)[C@@H](O)[C@H](N)[C@H]3O)[C@H](N)C[C@@H]2N)[C@H](O)[C@@H](O)[C@@H]1O [KANAMYCIN] |  | 1.3 (≈ 2.68 µM) |  |  |  |  |  |  |  | 
CN[C@H](CC(C)C)C(=O)N[C@H]1C(=O)N[C@@H](CC(N)=O)C(=O)N[C@H]2C(=O)N[C@H]3C(=O)N[C@H](C(=O)N[C@H](C(=O)O)c4cc(O)cc(O)c4-c4cc3ccc4O)[C@H](O)c3ccc(c(Cl)c3)Oc3cc2cc(c3O[C@@H]2O[C@H](CO)[C@@H](O)[C@H](O)[C@H]2O[C@H]2C[C@](C)(N)[C@H](O)[C@H](C)O2)Oc2ccc(cc2Cl)[C@H]1O [VANCOMYCIN] | 0.6 (≈ 0.414 µM) |  | 1.3 (≈ 0.897 µM) | > 40 |  |  |  |  |  | 
